Experiments:
[1] = molecular target: glucocorticoid receptor (GR) (Mus musculus, UniProt P06537); conditions: NF, MF, AF and FS cells; 500 nM dexamethasone, 2 h
Description: Cells were grown in 24-well plates (Corning). The medium was changed to serum-free, phenol-red free DMEM, supplemented with insulin (5 μg/ml) and transferrin (10 μg/ml), with or without 500 nM dexamethasone for 2 h. After three washes with ice-cold PBS, cells were fixed with cold (-20° C.) methanol for 10 min, and then washed with TBS. Nonspecific binding sites were blocked in blocking buffer (BB) (TBS, 1% Triton, 1% glycine, 3% bovine serum albumin and 10% normal goat serum). […] Diaminobenzidine (Sigma) was used as a substrate for the peroxidase reaction.
To assesss the nature of the differential GR activity, we examined the ligand-dependent nuclear translocation of GR in normal dermal fibroblasts and the three progressive conditions, MF, AF and FS.

[2] = molecular target: endogenous glucocorticoid receptor (GR) (Mus musculus, UniProt P06537)
Description: Cultures were established from skin and tumor tissues of several independent BPV transgenic mice (Sippola-Thiele et al., 1989), and maintained in Dulbecco's modified Eagle's medium (DMEM-21, high glucose formulation; Gibco-BRL) containing 8% fetal calf serum (Hyclone). Cells were propagated for no longer than five weeks and always used at low passage number (1-30). Several cultures were tested from each stage of the tumorigenic process: normal fibroblasts, NF (23784, 40950); mild fibromatosis, MF (39614, 14249, 27877); aggressive fibromatosis, AF (BPV7, BPV3, BPV21); fibrosarcoma, FS (BPV1, BPV22, BPV2, BPV11).
Cells were plated at least 12 h before transfeetion at ~0.5×10^6 cells per 6 cm dish. Reporter gene DNA (2 μg), together with the 6RZ (100 ng) as an internal control for efficiency of transfection, were introduced into cells using the DEAE-dextran method (Ausubel). Where indicated, the expression vector 6RGR was co-transfected. After exposure to the DNA/DEAE-dextran mixture, the cells were incubated for 24 h in fresh medium containing charcoal-strippedserum (Miesfeld et al., 1987) with or without 100 nM dexamethasone (Sigma). Cells were harvested and the luciferase activity measured according to the instructions of the manufacturer (Promega) and normalized for β-galactosidase expression as previously described (Miner and Yamamoto (1992) Genes Dev., 6:2491-2501). Each experiment was repeated at least six times and the results averaged.
To monitor the activity of the endogenous glucocorticoid receptor (GR) during dermal fibroblast tumorigenesis, we performed transient transfection assays using low passage primary cell lines representative of the four stages in this multistep pathway: normal dermal fibroblasts, NF; mild fibromatosis, MF; aggressive fibromatosis, AF; fibrosarcoma, FS. […] We first measured the hormone responsiveness of a reporter construct, TAT3-Luc, containing three tandem simple GREs derived from the tyrosine aminotransferase (TAT) gene (Jantzen et al., 1987).

[3] = test system: GR and AP-1 (composite element G(26)A); assay: Transient transfection of G(26)A3-Luc composite GRE luciferase reporter, hormone responsiveness; assay type: cell-based, mouse; conditions: 100 nM dexamethasone, 24 h
Source text: Where indicated, the expression vector 6RGR was co-transfected.
In view of the observed changes in GR and AP-1 activities, we next tested a composite element that requires both factors for transcriptional activation. The synthetic composite element, G(26)A, which resembles a sequence in the glucocorticoid regulatory region of the glutamine synthetase gene (Zhang and Young (1991) J. Biol. Chem., 266:24332-24338), contains the TAT GRE sequence linked through a 15 bp spacer to the collagenase AP-1 sequence. In this configuration, neither GR alone nor AP-1 alone (either Jun homodimers or Jun-Fos heterodimers) activates a linked reporter gene in transfected embryonal earcinoma F9 cells (which express low levels of endogenous GR and AP-1 factors), whereas co-transfection of GR and AP-1 (Jun-Jun or Jun-Fos) produces a strong synergistic activation upon hormone addition. We transfected a luciferase reporter construct containing three copies of the G(26)A composite element, G(26)A3-Luc, into cell cultures representing each stage of the fibrosarcoma progression.

Chain of endogenous glucocorticoid receptor (GR) (P06537 whole entry): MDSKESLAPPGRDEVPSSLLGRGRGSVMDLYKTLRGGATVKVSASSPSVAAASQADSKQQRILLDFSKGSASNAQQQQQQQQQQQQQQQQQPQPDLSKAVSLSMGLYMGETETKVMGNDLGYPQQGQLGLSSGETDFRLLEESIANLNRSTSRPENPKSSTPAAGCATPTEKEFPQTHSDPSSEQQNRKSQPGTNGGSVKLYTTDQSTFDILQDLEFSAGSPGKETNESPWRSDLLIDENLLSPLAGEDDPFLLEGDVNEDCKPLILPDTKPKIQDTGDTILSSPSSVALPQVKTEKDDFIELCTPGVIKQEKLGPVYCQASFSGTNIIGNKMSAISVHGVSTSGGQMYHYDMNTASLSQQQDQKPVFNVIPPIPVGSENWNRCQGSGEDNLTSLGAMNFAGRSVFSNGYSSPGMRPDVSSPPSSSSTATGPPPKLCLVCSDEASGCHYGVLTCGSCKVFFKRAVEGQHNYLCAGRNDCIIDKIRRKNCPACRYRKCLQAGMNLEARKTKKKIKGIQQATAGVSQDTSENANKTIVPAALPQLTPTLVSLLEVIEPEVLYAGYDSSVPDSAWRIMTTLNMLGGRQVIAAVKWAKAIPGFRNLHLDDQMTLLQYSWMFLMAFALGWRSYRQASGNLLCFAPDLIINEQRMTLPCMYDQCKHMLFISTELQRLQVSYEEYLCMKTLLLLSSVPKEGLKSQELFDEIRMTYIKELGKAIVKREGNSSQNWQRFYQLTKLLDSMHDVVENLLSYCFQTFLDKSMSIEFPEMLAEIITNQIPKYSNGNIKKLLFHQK
Chain of glucocorticoid receptor (GR) (P06537 whole entry): as above

C[C@@H]1C[C@H]2[C@@H]3CCC4=CC(=O)C=C[C@]4(C)[C@@]3(F)[C@@H](O)C[C@]2(C)[C@@]1(O)C(=O)CO [dexamethasone]
nuclear translocation of GR [1]: efficiently translocated to the nucleus
hormonal induction of luciferase activity (TAT3-Luc) ([2]; FS (fibrosarcoma) cells, 100 nM dexamethasone, 24 h): strong hormonal induction
stimulation of basal luciferase activity (TAT3-Luc) ([2]; NF, MF or AF cell lines, 100 nM dexamethasone, 24 h): only a modest stimulation
transcriptional response (TAT3-Luc) ([2]; nNF, dermal fibroblasts from non-transgenic mice): low transcriptional response
hormonal induction through the G(26)A element ([3]; AF cells): only a modest hormonal induction
induction of luciferase activity (G(26)A3-Luc) ([3]; tumor (FS) cells): dramatically induced

From patent US5631133A, “Transition in transcriptional activation by intracellular hormone receptors at the tumor stage of dermal fibrosarcoma development” (The Regents of the University of California, priority 1995, dated 1997)
